Measurements reported in BindingDB's records for doi:10.1016/0006-3223(89)90217-5 (Stanford University, 1989).

What was measured:
[1] = molecular target: T1, 5-hydroxytryptamine receptor 1A (Homo sapiens, UniProt P08908)
T1 sequence (P08908 whole entry): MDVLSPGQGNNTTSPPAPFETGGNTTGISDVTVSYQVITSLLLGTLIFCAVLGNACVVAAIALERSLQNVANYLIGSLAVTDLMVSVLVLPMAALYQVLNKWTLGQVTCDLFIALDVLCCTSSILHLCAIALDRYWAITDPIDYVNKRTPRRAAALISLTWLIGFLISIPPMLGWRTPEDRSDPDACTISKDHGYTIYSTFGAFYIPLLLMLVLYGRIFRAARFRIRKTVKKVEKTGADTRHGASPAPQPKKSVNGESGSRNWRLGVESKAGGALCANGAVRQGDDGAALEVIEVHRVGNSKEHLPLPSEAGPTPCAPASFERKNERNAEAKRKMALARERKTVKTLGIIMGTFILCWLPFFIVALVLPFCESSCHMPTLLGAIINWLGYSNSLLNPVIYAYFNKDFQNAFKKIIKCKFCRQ

[2] = molecular target: 5-hydroxytryptamine receptor 1D (Homo sapiens, UniProt P28221)
[3] = molecular target: Beta-2 adrenergic receptor (Homo sapiens, UniProt P07550)
[4] = molecular target: D(2) dopamine receptor (Homo sapiens, UniProt P14416)
[5] = molecular target: D(1A) dopamine receptor (Homo sapiens, UniProt P21728)
[6] = molecular target: T2, Muscarinic acetylcholine receptor M2 (Homo sapiens, UniProt P08172)
T2 sequence (P08172 whole entry): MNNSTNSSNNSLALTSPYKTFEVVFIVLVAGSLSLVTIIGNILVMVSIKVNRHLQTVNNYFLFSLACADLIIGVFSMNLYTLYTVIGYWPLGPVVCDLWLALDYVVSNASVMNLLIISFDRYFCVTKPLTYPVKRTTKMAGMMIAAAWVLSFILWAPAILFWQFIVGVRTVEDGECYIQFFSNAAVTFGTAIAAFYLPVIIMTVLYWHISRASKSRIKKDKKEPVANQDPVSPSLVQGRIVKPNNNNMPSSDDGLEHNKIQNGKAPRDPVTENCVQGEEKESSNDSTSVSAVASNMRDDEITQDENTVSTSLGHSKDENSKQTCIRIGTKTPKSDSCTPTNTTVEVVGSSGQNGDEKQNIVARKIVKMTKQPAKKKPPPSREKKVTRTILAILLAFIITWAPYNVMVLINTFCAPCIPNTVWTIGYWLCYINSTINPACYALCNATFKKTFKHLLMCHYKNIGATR

[7] = molecular target: T3, Solute carrier family 22 member 1 (Homo sapiens, UniProt O15245)
T3 sequence (O15245 whole entry): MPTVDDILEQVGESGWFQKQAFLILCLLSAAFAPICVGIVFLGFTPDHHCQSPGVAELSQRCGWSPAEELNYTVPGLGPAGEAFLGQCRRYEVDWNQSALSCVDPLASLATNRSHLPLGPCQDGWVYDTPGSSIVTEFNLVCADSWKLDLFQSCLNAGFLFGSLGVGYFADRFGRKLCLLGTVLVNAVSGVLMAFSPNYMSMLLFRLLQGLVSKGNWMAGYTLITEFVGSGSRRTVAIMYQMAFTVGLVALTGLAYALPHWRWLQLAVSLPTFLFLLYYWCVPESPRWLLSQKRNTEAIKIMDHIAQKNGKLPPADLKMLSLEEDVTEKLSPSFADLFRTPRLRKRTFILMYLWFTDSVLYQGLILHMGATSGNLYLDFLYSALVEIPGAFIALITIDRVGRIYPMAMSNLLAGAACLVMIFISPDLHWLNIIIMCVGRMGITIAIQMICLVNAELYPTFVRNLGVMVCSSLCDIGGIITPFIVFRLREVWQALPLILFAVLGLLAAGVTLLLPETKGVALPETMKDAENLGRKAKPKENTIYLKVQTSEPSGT

[8] = molecular target: T4, Gamma-aminobutyric acid receptor subunit alpha-1 (Homo sapiens, UniProt P14867)
T4 sequence (P14867 whole entry): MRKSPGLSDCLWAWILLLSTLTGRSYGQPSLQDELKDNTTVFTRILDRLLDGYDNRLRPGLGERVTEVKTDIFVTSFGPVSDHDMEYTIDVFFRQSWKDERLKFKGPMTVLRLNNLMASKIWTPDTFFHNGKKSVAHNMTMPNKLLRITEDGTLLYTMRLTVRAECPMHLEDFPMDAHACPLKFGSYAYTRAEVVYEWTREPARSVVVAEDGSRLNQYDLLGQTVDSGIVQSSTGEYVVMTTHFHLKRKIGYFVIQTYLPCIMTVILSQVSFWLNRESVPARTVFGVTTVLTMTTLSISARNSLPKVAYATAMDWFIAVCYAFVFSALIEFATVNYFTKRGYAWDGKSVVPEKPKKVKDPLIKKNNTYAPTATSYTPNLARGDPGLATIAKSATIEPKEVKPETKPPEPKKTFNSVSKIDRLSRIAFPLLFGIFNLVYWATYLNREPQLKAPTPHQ

[9] = molecular target: T5, Alpha-2A adrenergic receptor (Homo sapiens, UniProt P08913)
T5 sequence (P08913 whole entry): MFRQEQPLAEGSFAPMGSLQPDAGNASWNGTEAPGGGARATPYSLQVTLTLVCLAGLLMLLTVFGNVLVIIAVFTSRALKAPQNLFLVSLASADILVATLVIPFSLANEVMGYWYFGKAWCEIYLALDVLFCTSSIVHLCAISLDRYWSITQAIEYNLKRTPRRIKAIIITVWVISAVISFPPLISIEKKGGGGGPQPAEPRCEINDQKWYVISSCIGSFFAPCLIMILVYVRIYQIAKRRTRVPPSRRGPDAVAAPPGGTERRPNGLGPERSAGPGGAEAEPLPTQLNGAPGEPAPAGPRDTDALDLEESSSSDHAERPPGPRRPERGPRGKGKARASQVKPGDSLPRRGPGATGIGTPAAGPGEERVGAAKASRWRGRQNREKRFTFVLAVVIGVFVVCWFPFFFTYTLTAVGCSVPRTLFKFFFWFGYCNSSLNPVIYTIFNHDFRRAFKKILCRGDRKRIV

Chain of 5-hydroxytryptamine receptor 1D (P28221 whole entry): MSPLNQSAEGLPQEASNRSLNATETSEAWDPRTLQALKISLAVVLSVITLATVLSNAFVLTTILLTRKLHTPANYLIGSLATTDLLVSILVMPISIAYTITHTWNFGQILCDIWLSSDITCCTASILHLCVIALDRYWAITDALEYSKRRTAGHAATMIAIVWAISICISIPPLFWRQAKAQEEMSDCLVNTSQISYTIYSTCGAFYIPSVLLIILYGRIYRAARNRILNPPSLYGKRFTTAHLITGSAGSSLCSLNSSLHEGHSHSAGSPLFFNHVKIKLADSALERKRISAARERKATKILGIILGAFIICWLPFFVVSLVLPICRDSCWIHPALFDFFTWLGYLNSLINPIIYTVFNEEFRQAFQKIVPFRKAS
Chain of D(1A) dopamine receptor (P21728 whole entry): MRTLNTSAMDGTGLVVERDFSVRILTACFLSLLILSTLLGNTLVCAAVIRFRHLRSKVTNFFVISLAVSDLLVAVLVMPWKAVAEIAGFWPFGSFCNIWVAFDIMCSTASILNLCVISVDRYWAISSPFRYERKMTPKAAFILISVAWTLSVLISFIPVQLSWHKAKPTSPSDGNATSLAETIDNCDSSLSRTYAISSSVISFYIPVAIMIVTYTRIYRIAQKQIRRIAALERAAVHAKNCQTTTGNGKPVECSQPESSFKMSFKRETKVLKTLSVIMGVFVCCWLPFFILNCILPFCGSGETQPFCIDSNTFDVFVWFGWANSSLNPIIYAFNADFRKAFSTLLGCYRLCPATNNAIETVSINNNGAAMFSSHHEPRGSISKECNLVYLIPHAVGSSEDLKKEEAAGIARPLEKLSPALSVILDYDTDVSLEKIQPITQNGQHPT
Chain of D(2) dopamine receptor (P14416 whole entry): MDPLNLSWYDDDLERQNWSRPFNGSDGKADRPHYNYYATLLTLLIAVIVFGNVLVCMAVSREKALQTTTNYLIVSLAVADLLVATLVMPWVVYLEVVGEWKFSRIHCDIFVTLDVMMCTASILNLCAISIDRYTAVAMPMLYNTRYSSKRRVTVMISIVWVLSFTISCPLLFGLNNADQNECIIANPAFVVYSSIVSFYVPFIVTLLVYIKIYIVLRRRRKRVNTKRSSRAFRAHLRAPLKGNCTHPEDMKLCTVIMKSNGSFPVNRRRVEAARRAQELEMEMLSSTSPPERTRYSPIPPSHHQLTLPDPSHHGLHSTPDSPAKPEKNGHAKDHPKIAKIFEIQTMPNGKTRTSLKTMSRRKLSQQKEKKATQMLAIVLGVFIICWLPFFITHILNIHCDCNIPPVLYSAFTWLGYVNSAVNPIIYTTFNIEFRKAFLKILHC
Chain of Beta-2 adrenergic receptor (P07550 whole entry): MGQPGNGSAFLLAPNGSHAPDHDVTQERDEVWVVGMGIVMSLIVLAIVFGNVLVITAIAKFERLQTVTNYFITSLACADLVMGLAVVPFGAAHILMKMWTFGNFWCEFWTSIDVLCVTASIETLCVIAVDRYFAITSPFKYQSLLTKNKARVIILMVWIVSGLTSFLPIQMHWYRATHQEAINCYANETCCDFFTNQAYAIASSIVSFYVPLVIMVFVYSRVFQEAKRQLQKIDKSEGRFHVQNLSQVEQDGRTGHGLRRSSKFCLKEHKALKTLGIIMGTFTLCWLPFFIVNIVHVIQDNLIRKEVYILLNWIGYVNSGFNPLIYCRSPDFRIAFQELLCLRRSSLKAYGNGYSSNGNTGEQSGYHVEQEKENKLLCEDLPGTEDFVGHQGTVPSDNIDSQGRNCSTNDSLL

SMILES: Clc1cccc(N2CCNCC2)c1 [mCPP]
- Ki [1]: 0.4 µM
- Ki [2]: 1.3 µM
- Ki [3]: 2.5 µM
- Ki [4]: > 10 µM
- Ki [5]: 7 µM
- Ki [6]: > 10 µM
- Ki [7]: 2.9 µM
- Ki [8]: > 10 µM
- Ki [9]: 0.57 µM
